Laboratory results taken from patent US20240384268A1, “Oligonucleotides” (Hudson Institute of Medical Research, priority 2021, published 2024).
In the oligonucleotide strings, read from the 5' end, every base follows the letter of its sugar. An asterisk marks phosphorothioate; unmarked linkages are phosphodiester. Other units and linkages are bracketed, terminal groups are in braces. A string of capitals states the bases alone. d = 2'-deoxy (DNA); m = 2'-O-methyl

The substances below were run against T1, human TLR7 (Homo sapiens, UniProt Q9NYK1) (assay: HEK-TLR7 NF-κB-luciferase reporter, R848 stimulation). Details: HEK-TLR7; 100 nM ASO; percentage of R848 without ASO (Alharbi et al., 2020).
T1 construct: HA; host or cells: 293XL-hTLR7-HA (HEK293)
T1 sequence (Q9NYK1 27-1049): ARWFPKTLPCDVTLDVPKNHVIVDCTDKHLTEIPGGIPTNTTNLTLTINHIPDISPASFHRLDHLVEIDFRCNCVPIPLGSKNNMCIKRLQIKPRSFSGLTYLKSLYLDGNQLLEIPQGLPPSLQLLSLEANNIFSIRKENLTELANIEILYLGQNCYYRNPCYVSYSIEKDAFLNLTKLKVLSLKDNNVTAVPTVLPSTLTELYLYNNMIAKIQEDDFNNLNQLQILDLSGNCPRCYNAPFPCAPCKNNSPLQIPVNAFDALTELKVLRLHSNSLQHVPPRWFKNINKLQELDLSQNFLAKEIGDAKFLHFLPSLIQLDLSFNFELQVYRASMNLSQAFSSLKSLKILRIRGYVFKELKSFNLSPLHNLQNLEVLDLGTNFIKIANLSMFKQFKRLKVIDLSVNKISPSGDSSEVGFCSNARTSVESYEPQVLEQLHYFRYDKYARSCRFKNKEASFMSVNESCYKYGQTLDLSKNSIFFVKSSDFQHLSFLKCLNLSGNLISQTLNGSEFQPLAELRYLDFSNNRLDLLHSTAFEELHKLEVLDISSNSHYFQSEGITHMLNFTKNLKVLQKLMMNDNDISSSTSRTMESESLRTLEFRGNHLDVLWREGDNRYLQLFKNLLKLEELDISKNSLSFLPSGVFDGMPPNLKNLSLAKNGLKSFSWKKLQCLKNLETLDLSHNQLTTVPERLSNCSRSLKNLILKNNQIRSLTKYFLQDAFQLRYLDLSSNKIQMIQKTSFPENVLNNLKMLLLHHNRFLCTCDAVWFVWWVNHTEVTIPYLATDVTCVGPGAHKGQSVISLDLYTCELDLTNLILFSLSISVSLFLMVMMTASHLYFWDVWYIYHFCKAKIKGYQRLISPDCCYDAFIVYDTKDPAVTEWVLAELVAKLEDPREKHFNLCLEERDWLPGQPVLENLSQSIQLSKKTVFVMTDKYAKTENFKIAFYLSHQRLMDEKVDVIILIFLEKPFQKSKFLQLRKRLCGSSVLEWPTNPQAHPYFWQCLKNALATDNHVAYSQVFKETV
Assay type: cell-based

Substance	TLR7-100 nM: averaged NF-κB-Luciferase relative to R848 [%]
mU*mC*mU*mG*mG*T*C*C*C*A*T*C*C*C*T*mU*mC*mU*mG*mC (UCUGGTCCCATCCCTUCUGC; antisense; sugars from the 5' end m5 d10 m5, all phosphorothioate, methylation of C not given here) [[LINC-PINT]106]	29.42
mC*mC*mA*mU*mC*C*C*T*T*C*T*G*C*T*G*mC*mC*mA*mA*mG (mC*mC*mA*mU*mC*dC*dC*dT*dT*dC*dT*dG*dC*dT*dG*mC*mC*mA*mA*mG; antisense) [ILING-PINT199]	52.57
mU*mG*mU*mG*mA*A*A*A*G*A*T*T*A*T*C*mU*mU*mC*mU*mU (UGUGAAAAGATTATCUUCUU; sugars from the 5' end m5 d10 m5, all phosphorothioate, methylation of C not given here) [[CDKN2B-AS1]2137]	34.51
mG*mU*mC*mC*mC*A*T*C*C*C*T*T*C*T*G*mC*mU*mG*mC*mC (GUCCCATCCCTTCTGCUGCC; antisense; sugars from the 5' end m5 d10 m5, all phosphorothioate, methylation of C not given here) [[LINC-PINT]102]	22.47
mA*mG*mG*mA*mU*T*A*A*A*A*C*A*G*A*T*mU*mA*mA*mU*mA (mA*mG*mG*mA*mU*dT*dA*dA*dA*dA*dC*dA*dG*dA*dT*mU*mA*mA*mU*mA) [[CDKN2B-AS1] 1775]	36.28
mG*mU*mC*mA*mA*A*C*C*T*A*G*A*A*A*G*mA*mA*mG*mC*mA (mG*mU*mC*mA*mA*dA*dC*dC*dT*dA*dG*dA*dA*dA*dG*mA*mA*mG*mC*mA; antisense) [[CDKN2B-AS1]1528]	23.64
mC*mC*mU*mU*mC*T*G*C*T*G*C*C*A*A*G*mC*mC*mC*mC*mA (mC*mC*mU*mU*mC*dT*dG*dC*dT*dG*dC*dC*dA*dA*dG*mC*mC*mC*mC*mA; antisense) [[LINC-PINT]94]	85.57
mG*mG*mU*mG*mG*C*C*A*C*A*G*G*C*A*A*mC*mG*mU*mC*mA (GGUGGCCACAGGCAACGUCA; antisense; sugars from the 5' end m5 d10 m5, all phosphorothioate, methylation of C not given here) [[CDKN2B-AS1]2196]	39.07
mC*mA*mA*mG*mC*C*C*C*A*G*C*G*T*T*C*mC*mU*mC*mC*mG (mC*mA*mA*mG*mC*dC*dC*dC*dA*dG*dC*dG*dT*dT*dC*mC*mU*mC*mC*mG; antisense) [[LINC-PINT]83.1]	45.20
mU*mG*mA*mU*mG*A*T*G*C*T*T*G*C*A*G*mG*mA*mG*mG*mC (mU*mG*mA*mU*mG*dA*dT*dG*dC*dT*dT*dG*dC*dA*dG*mG*mA*mG*mG*mC) [[LINC-PINT|283.1]	25.50
mG*mC*mG*mU*mA*G*T*T*T*C*T*C*T*T*C*mC*mU*mC*mC*mC (GCGUAGTTTCTCTTCCUCCC; sugars from the 5' end m5 d10 m5, all phosphorothioate, methylation of C not given here) [[LINC-PINT]935 KL]	27.23
mU*mC*mU*mC*mU*G*G*T*C*C*C*A*T*C*C*mC*mU*mU*mC*mU (UCUCUGGTCCCATCCCUUCU; antisense; sugars from the 5' end m5 d10 m5, all phosphorothioate, methylation of C not given here) [[LINC-PINT]108]	78.25
mU*mU*mU*mG*mA*A*A*T*T*C*A*G*A*A*G*mA*mU*mU*mU*mG (mU*mU*mU*mG*mA*dA*dA*dT*dT*dC*dA*dG*dA*dA*dG*mA*mU*mU*mU*mG) [[LINC PINT|2690]	35.07
mG*mA*mA*mA*mA*G*A*T*T*A*T*C*T*T*C*mU*mU*mU*mU*mA (GAAAAGATTATCTTCUUUUA; sugars from the 5' end m5 d10 m5, all phosphorothioate, methylation of C not given here) [[CDKN2B-AS1]2134]	34.44
mA*mC*mC*mC*mU*T*C*T*C*T*C*T*G*G*T*mC*mC*mC*mA*mU (mA*mC*mC*mC*mU*dT*dC*dT*dC*dT*dC*dT*dG*dG*dT*mC*mC*mC*mA*mU; antisense) [[LINC-PINT]115]	43.37
mG*mG*mU*mC*mC*C*A*T*C*C*C*T*T*C*T*mG*mC*mU*mG*mC (GGUCCCATCCCTTCTGCUGC; sugars from the 5' end m5 d10 m5, all phosphorothioate, methylation of C not given here) [[LINC-PINT]103]	20.75
mG*mU*mU*mC*mA*G*T*C*A*G*A*T*C*G*C*mU*mG*mG*mG*mA (mG*mU*mU*mC*mA*dG*dT*dC*dA*dG*dA*dT*dC*dG*dC*mU*mG*mG*mG*mA) [[LINC-PINT]412 KL]	17.46
mG*mG*mG*mU*mC*T*C*C*T*C*C*A*C*A*C*mC*mC*mU*mU*mC (GGGUCTCCTCCACACCCUUC; antisense; sugars from the 5' end m5 d10 m5, all phosphorothioate, methylation of C not given here) [[LINC-PINT]128]	21.47
mC*mU*mC*mU*mC*T*G*G*T*C*C*C*A*T*C*mC*mC*mU*mU*mC (mC*mU*mC*mU*mC*dT*dG*dG*dT*dC*dC*dC*dA*dT*dC*mC*mC*mU*mU*mC; antisense) [[LINC-PINT]109]	84.97
mC*mA*mC*mC*mC*T*T*C*T*C*T*C*T*G*G*mU*mC*mC*mC*mA (CACCCTTCTCTCTGGUCCCA; antisense; sugars from the 5' end m5 d10 m5, all phosphorothioate, methylation of C not given here) [[LINC-PINT]116]	73.30
mA*mU*mA*mU*mC*T*G*C*T*G*C*C*C*A*C*mC*mU*mU*mC*mU (AUAUCTGCTGCCCACCUUCU; antisense; sugars from the 5' end m5 d10 m5, all phosphorothioate, methylation of C not given here) [[CDKN2B-AS1]831]	47.52
mC*mU*mU*mC*mU*C*T*C*T*G*G*T*C*C*C*mA*mU*mC*mC*mC (mC*mU*mU*mC*mU*dC*dT*dC*dT*dG*dG*dT*dC*dC*dC*mA*mU*mC*mC*mC) [[LINC-PINT]112]	56.20
mA*mA*mG*mA*mU*T*A*T*C*T*T*C*T*T*T*mU*mA*mA*mU*mU (mA*mA*mG*mA*mU*dT*dA*dT*dC*dT*dT*dC*dT*dT*dT*mU*mA*mA*mU*mU) [[CDKN2B-AS1]2131]	42.09
mU*mU*mC*mU*mC*T*C*T*G*G*T*C*C*C*A*mU*mC*mC*mC*mU (mU*mU*mC*mU*mC*dT*dC*dT*dG*dG*dT*dC*dC*dC*dA*mU*mC*mC*mC*mU; antisense) [[LINC-PINT]111]	26.22
mG*mG*mU*mC*mU*C*C*T*C*C*A*C*A*C*C*mC*mU*mU*mC*mU (mG*mG*mU*mC*mU*dC*dC*dT*dC*dC*dA*dC*dA*dC*dC*mC*mU*mU*mC*mU; antisense) [[LINC-PINT]127]	23.66
mC*mC*mC*mU*mU*C*T*C*T*C*T*G*G*T*C*mC*mC*mA*mU*mC (mC*mC*mC*mU*mU*dC*dT*dC*dT*dC*dT*dG*dG*dT*dC*mC*mC*mA*mU*mC; antisense) [[LINC-PINT]114]	49.59
mC*mC*mU*mA*mG*A*A*A*G*A*A*G*C*A*A*mA*mG*mA*mU*mU (mC*mC*mU*mA*mG*dA*dA*dA*dG*dA*dA*dG*dC*dA*dA*mA*mG*mA*mU*mU) [[CDKN2B-AS1]1522]	57.20
mA*mG*mG*mC*mC*T*C*C*A*G*T*G*T*C*T*mU*mC*mU*mC*mC (mA*mG*mG*mC*mC*dT*dC*dC*dA*dG*dT*dG*dT*dC*dT*mU*mC*mU*mC*mC; antisense) [[CDKN2B-AS1]2218]	44.73

Same assay, conditions: MOE-modified ASO at 100 nM; averaged NF-κB-Luciferase relative to R848 condition

Substance	TLR7 100 nM
GCCCATCCATGAGGTCCTGG (antisense; 2'-MOE modified, pattern not given here) [CTNN2B-2545 MOE]	0.340
GTCCAAGATCAGCAGTCTCA (antisense; 2'-MOE modified, pattern not given here) [CTNN2B-2341 MOE]	0.298

Same assay, conditions: MOE-modified ASO at 500 nM; averaged NF-κB-Luciferase relative to R848 condition

Substance	TLR7 500 nM
GCCCATCCATGAGGTCCTGG (antisense; 2'-MOE modified, pattern not given here) [CTNN2B-2545 MOE]	0.124
GTCCAAGATCAGCAGTCTCA (antisense; 2'-MOE modified, pattern not given here) [CTNN2B-2341 MOE]	0.120
